Laboratory results reported in patent publication US10597388B2, “Pyridazinone herbicides” (FMC CORPORATION, priority 2014, dated 2020).

Columns and labels:
Type in all cases: in vivo
[1] = test system: ryegrass, Italian (Italian ryegrass, Lolium multiflorum); assay: Test A greenhouse herbicide test, pre- and postemergence
Method in brief: (§1)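 Seeds in loam–sand blend received a preemergence directed soil spray; plants at 2–10 cm, one- to two-leaf stage, received postemergence sprays. Compounds in a non-phytotoxic solvent with surfactant. After about 10 d in a greenhouse, injury rated visually versus untreated controls on a 0–100 scale (100 = complete control).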

kochia (Kochia scoparia) = assay: as above
Method in brief: as §1

[2] = test system: wheat (Triticum aestivum); assay: as above; settings: Postemergence; for Plant response rating, Wheat: 125 g ai/ha, 0 to 100 scale where 0 is no effect and 100 is complete control; for Wheat plant response rating: 500 g ai/ha, 0 to 100 scale, 0 is no effect, 100 is complete control
Method in brief: as §1

[3] = test system: foxtail, giant (giant foxtail, Setaria faberii); assay: as above
Method in brief: as §1

corn (Zea mays) = assay: as above; settings: Postemergence; for Plant response rating, Corn: 125 g ai/ha; for Corn plant response rating: 500 g ai/ha, 0 to 100 scale, 0 is no effect, 100 is complete control
Method in brief: as §1

[4] = test system: barnyardgrass (Echinochloa crus-galli); assay: as above
Method in brief: as §1

[5] = test system: ragweed (common ragweed, Ambrosia elatior); assay: as above
Method in brief: as §1

[6] = test system: pigweed (Amaranthus retroflexus); assay: as above
Method in brief: as §1

[7] = test system: ryegrass, Italian (Italian ryegrass, Lolium multiflorum); assay: Test C greenhouse herbicide test, pre- and postemergence
Method in brief: (§2)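 Visual ratings on a 0 to 100 scale (0 = no effect, 100 = complete control) versus untreated controls, scored 13–15 d after treatment. Soil-applied preemergence to seeded loam/sand; foliar postemergence to 1- to 4-leaf plants (2–18 cm) in peat-vermiculite mix; compounds formulated in solvent plus surfactant.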

[8] = test system: nutsedge, yellow (yellow nutsedge, Cyperus esculentus); assay: as above
Method in brief: as §2

[9] = test system: lambsquarters (Chenopodium album); assay: as above
Method in brief: as §2

[10] = Postemergence, 125 g ai/ha, 0 to 100 scale where 0 is no effect and 100 is complete control
[11] = Postemergence, 500 g ai/ha, 0 to 100 scale, 0 is no effect, 100 is complete control
[12] = Preemergence, 125 g ai/ha, 0 to 100 scale where 0 is no effect and 100 is complete control
[13] = Preemergence, 500 g ai/ha, 0 to 100 scale, 0 no effect, 100 complete control
[14] = Postemergence, 125 g ai/ha, visual rating after approx. 10 d, 0 to 100 scale (0 no effect, 100 complete control)
[15] = visual rating after approx. 10 d, 0 to 100 scale (0 no effect, 100 complete control)
[16] = Postemergence, 31 g ai/ha, 0 to 100 scale (0 no effect, 100 complete control)
[17] = Postemergence, 125 g ai/ha, scale 0 to 100, 0 is no effect, 100 is complete control
[18] = Postemergence, 250 g ai/ha, scale 0 to 100, 0 no effect, 100 complete control, 13 to 15 d
[19] = Preemergence, 31 g ai/ha, scale 0 to 100, 0 is no effect, 100 is complete control
[20] = Preemergence, 62 g ai/ha, scale 0 to 100, 0 is no effect, 100 is complete control
[21] = Preemergence, 125 g ai/ha, scale 0 to 100, 0 is no effect, 100 is complete control
[22] = Preemergence, 250 g ai/ha, scale 0 to 100 (0 no effect, 100 complete control)
[23] = postemergence, 62 g ai/ha, scale 0 to 100, 0 no effect, 100 complete control
[24] = Postemergence, 16 g ai/ha, scale 0 to 100 (0 no effect, 100 complete control)

## COc1nn(C)c(=O)c(-c2c(C)ccc3ccccc23)c1OC(=O)OC(C)C [Compound 36]
[1]; [10]
  Plant response rating, Ryegrass, Italian: 70
[1]; [11]
  Ryegrass, Italian plant response rating: 80
[1]; [12]
  Ryegrass, Italian plant response rating: 70
[1]; [13]
  Plant response rating, Ryegrass, Italian: 70
Kochia (Kochia scoparia); [14]
  Plant response rating, Kochia: 90
Kochia (Kochia scoparia); [11]
  Kochia plant response rating: 100
Kochia (Kochia scoparia); [12]
  Kochia plant response rating: 10
Kochia (Kochia scoparia); [13]
  Plant response rating, Kochia: 80
[2]
  Plant response rating, Wheat: 20
  Wheat plant response rating: 30
[3]; [14]
  Plant response rating, Foxtail, Giant: 80
[3]; [11]
  Foxtail, Giant plant response rating: 90
[3]; [12]
  Foxtail, Giant plant response rating: 80
[3]; [13]
  Plant response rating, Foxtail, Giant: 90
Corn (Zea mays); [15]
  Plant response rating, Corn: 20
Corn (Zea mays)
  Corn plant response rating: 40
[4]; [14]
  Plant response rating, Barnyardgrass: 50
[4]; [11]
  Barnyardgrass plant response rating: 80
[4]; [12]
  Barnyardgrass plant response rating: 0
[4]; [13]
  Plant response rating, Barnyardgrass: 30
[5]; [14]
  Plant response rating, Ragweed: 90
[5]; [11]
  Ragweed plant response rating: 90
[5]; [12]
  Ragweed plant response rating: 80
[5]; [13]
  Plant response rating, Ragweed: 90
[6]; [14]
  Plant response rating, Pigweed: 90
[6]; [11]
  Pigweed plant response rating: 90
[6]; [12]
  Pigweed plant response rating: 100
[6]; [13]
  Plant response rating, Pigweed: 100
[7]; [16]
  Ryegrass, Italian plant response rating: 55
[7]; [17]
  Plant response rating, Ryegrass, Italian: 60
[7]; [18]
  Plant response rating, Ryegrass, Italian: 80
[7]; [19]
  Plant response rating, Ryegrass, Italian: 30
[7]; [20]
  Plant response rating, Ryegrass, Italian: 30
[7]; [21]
  Plant response rating, Ryegrass, Italian: 35
[7]; [22]
  Ryegrass, Italian plant response rating: 85
[7]; [23]
  Ryegrass, Italian plant response rating: 60
[8]; [16]
  Nutsedge, Yellow plant response rating: 20
[8]; [17]
  Plant response rating, Nutsedge, Yellow: 55
[8]; [18]
  Plant response rating, Nutsedge, Yellow: 65
[8]; [19]
  Plant response rating, Nutsedge, Yellow: 10
[8]; [20]
  Plant response rating, Nutsedge, Yellow: 20
[8]; [21]
  Plant response rating, Nutsedge, Yellow: 20
[8]; [22]
  Nutsedge, Yellow plant response rating: 65
[8]; [23]
  Nutsedge, Yellow plant response rating: 40
[9]; [16]
  Lambsquarters plant response rating: 90
[9]; [17]
  Plant response rating, Lambsquarters: 98
[9]; [18]
  Plant response rating, Lambsquarters: 100
[9]; [19]
  Plant response rating, Lambsquarters: 70
[9]; [20]
  Plant response rating, Lambsquarters: 80
[9]; [21]
  Plant response rating, Lambsquarters: 85
[9]; [22]
  Lambsquarters plant response rating: 80
[9]; [23]
  Lambsquarters plant response rating: 98

## CCOC(=O)Oc1c(C)nn(C)c(=O)c1-c1c(CC)ccc2ccccc12 [Compound 37]
[1]; [10]
  Plant response rating, Ryegrass, Italian: 90
[1]; [11]
  Ryegrass, Italian plant response rating: 100
[1]; [12]
  Ryegrass, Italian plant response rating: 90
[1]; [13]
  Plant response rating, Ryegrass, Italian: 100
Kochia (Kochia scoparia); [14]
  Plant response rating, Kochia: 60
Kochia (Kochia scoparia); [11]
  Kochia plant response rating: 90
Kochia (Kochia scoparia); [12]
  Kochia plant response rating: 30
Kochia (Kochia scoparia); [13]
  Plant response rating, Kochia: 80
[2]
  Plant response rating, Wheat: 40
  Wheat plant response rating: 80
[3]; [14]
  Plant response rating, Foxtail, Giant: 80
[3]; [11]
  Foxtail, Giant plant response rating: 90
[3]; [12]
  Foxtail, Giant plant response rating: 70
[3]; [13]
  Plant response rating, Foxtail, Giant: 90
Corn (Zea mays); [15]
  Plant response rating, Corn: 0
Corn (Zea mays)
  Corn plant response rating: 40
[4]; [14]
  Plant response rating, Barnyardgrass: 60
[4]; [11]
  Barnyardgrass plant response rating: 90
[4]; [12]
  Barnyardgrass plant response rating: 30
[4]; [13]
  Plant response rating, Barnyardgrass: 90
[5]; [14]
  Plant response rating, Ragweed: 90
[5]; [11]
  Ragweed plant response rating: 90
[5]; [12]
  Ragweed plant response rating: 80
[5]; [13]
  Plant response rating, Ragweed: 90
[6]; [14]
  Plant response rating, Pigweed: 100
[6]; [11]
  Pigweed plant response rating: 100
[6]; [12]
  Pigweed plant response rating: 100
[6]; [13]
  Plant response rating, Pigweed: 100
[7]; [16]
  Ryegrass, Italian plant response rating: 80
[7]; [17]
  Plant response rating, Ryegrass, Italian: 90
[7]; [18]
  Plant response rating, Ryegrass, Italian: 90
[7]; [19]
  Plant response rating, Ryegrass, Italian: 50
[7]; [20]
  Plant response rating, Ryegrass, Italian: 85
[7]; [21]
  Plant response rating, Ryegrass, Italian: 90
[7]; [22]
  Ryegrass, Italian plant response rating: 95
[7]; [23]
  Ryegrass, Italian plant response rating: 85
[8]; [16]
  Nutsedge, Yellow plant response rating: 20
[8]; [17]
  Plant response rating, Nutsedge, Yellow: 65
[8]; [18]
  Plant response rating, Nutsedge, Yellow: 60
[8]; [19]
  Plant response rating, Nutsedge, Yellow: 0
[8]; [20]
  Plant response rating, Nutsedge, Yellow: 20
[8]; [21]
  Plant response rating, Nutsedge, Yellow: 40
[8]; [22]
  Nutsedge, Yellow plant response rating: 60
[8]; [23]
  Nutsedge, Yellow plant response rating: 40
[9]; [16]
  Lambsquarters plant response rating: 90
[9]; [17]
  Plant response rating, Lambsquarters: 95
[9]; [18]
  Plant response rating, Lambsquarters: 100
[9]; [19]
  Plant response rating, Lambsquarters: 85
[9]; [20]
  Plant response rating, Lambsquarters: 60
[9]; [21]
  Plant response rating, Lambsquarters: 85
[9]; [22]
  Lambsquarters plant response rating: 90
[9]; [23]
  Lambsquarters plant response rating: 90

## COc1ccc2ccccc2c1-c1c(O)c(C)nn(C)c1=O [Compound 40]
[1]; [10]
  Plant response rating, Ryegrass, Italian: 90
[1]; [11]
  Ryegrass, Italian plant response rating: 90
[1]; [12]
  Ryegrass, Italian plant response rating: 60
[1]; [13]
  Plant response rating, Ryegrass, Italian: 100
Kochia (Kochia scoparia); [10]
  Plant response rating, Kochia: 80
Kochia (Kochia scoparia); [11]
  Kochia plant response rating: 90
Kochia (Kochia scoparia); [12]
  Kochia plant response rating: 50
Kochia (Kochia scoparia); [13]
  Plant response rating, Kochia: 80
[2]
  Plant response rating, Wheat: 0
  Wheat plant response rating: 50
[3]; [10]
  Plant response rating, Foxtail, Giant: 60
[3]; [11]
  Foxtail, Giant plant response rating: 80
[3]; [12]
  Foxtail, Giant plant response rating: 40
[3]; [13]
  Plant response rating, Foxtail, Giant: 70
Corn (Zea mays); 0 to 100 scale where 0 is no effect and 100 is complete control
  Plant response rating, Corn: 0
Corn (Zea mays)
  Corn plant response rating: 10
[4]; [10]
  Plant response rating, Barnyardgrass: 10
[4]; [11]
  Barnyardgrass plant response rating: 60
[4]; [12]
  Barnyardgrass plant response rating: 10
[4]; [13]
  Plant response rating, Barnyardgrass: 50
[5]; [10]
  Plant response rating, Ragweed: 70
[5]; [11]
  Ragweed plant response rating: 90
[5]; [12]
  Ragweed plant response rating: 30
[5]; [13]
  Plant response rating, Ragweed: 80
[6]; [10]
  Plant response rating, Pigweed: 80
[6]; [11]
  Pigweed plant response rating: 100
[6]; [12]
  Pigweed plant response rating: 90
[6]; [13]
  Plant response rating, Pigweed: 100
[7]; [24]
  Plant response rating, Ryegrass, Italian: 10
[7]; [16]
  Ryegrass, Italian plant response rating: 50
[7]; [17]
  Plant response rating, Ryegrass, Italian: 80
[7]; [23]
  Ryegrass, Italian plant response rating: 65
[8]; [24]
  Plant response rating, Nutsedge, Yellow: 0
[8]; [16]
  Nutsedge, Yellow plant response rating: 0
[8]; [17]
  Plant response rating, Nutsedge, Yellow: 20
[8]; [23]
  Nutsedge, Yellow plant response rating: 15
[9]; [24]
  Plant response rating, Lambsquarters: 50
[9]; [16]
  Lambsquarters plant response rating: 70
[9]; [17]
  Plant response rating, Lambsquarters: 80
[9]; [23]
  Lambsquarters plant response rating: 70
